Laboratory results: PubChem BioAssay AID179 (DTP/NCI, 2004)
pEC50, pIC50: −log10 of the molar value. Calls of active or inactive are those of the source.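 The calls were made as follows: active = compounds giving half or more protection of infected cells from virus-caused growth loss, again on retest; inactive = the rest.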

Test system: CEM cells HIV-1 protection, formazan growth assay
Assay: NCI AIDS Antiviral Assay
Details: for pIC50: measured here: growth of uninfected CEM cells
Procedure, shortened: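 Protection of CEM cells against HIV-1 was scored from cell growth (soluble formazan) across five concentrations, with parallel uninfected cells. Lack of protection may reflect toxicity.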

SMILES | pEC50 | pIC50 | outcome
c1ccc2c(c1)[nH]c1nc3cc(-c4ccc5nc6c(nc5c4)[nH]c4ccccc46)ccc3nc12 | < 3.70 | 3.96 | –
O=c1c2cc([N+](=O)[O-])ccc2oc2ccc([N+](=O)[O-])cc12 | < 4.88 | < 4.88 | –
NC(CCc1nc(-c2cccc([N+](=O)[O-])c2)cs1)C(=O)O (stereo not given) | – | – | inactive
Brc1ccc(-c2ccc3nnnn3n2)s1 | < 3.70 | < 3.70 | –
O=C(O)C[C@@H]1C(=O)OC2C(COC(=O)c3cc(O)c(O)c(O)c3)OC(OC(=O)c3cc(O)c(O)c(O)c3)C(OC(=O)c3cc(O)c(O)c4c3C1[C@H](O)C(=O)O4)C2OC(=O)c1cc(O)c(O)c(O)c1 (stereo not given in full) | 5.83 | 4.89 | –
C=C1C(=O)OC2/C=C(\C)CC/C=C(\C)CC(OC(=O)/C(=C/CO)CO)[C@@H]12 (stereo not given in full) | < 3.70 | 6.03 | –
Cc1ccn2c(N=O)c(-c3ccccc3)nc2c1 | 3.87 | < 3.70 | –
CN(C)C(=S)SN(C)C(=O)Nc1ccccc1 | < 3.70 | 4.88 | –
O=S(=O)(c1ccccn1)c1nc2ccccc2s1 | – | – | inactive
Cc1c2c(n(CCc3ccccc3)c1C)NN=C(C#N)S2(=O)=O | < 3.70 | < 3.70 | –
CCNC(C)(C)C(SSSC(c1ccc(Cl)cc1)C(C)(C)NCC)c1ccc(Cl)cc1 (stereo not given) | < 3.70 | 5.04 | –
CC(C)(C)OC(=O)NC(CSSCC(NC(=O)OC(C)(C)C)C(=O)O)C(=O)O (stereo not given) | < 3.70 | < 3.70 | –
CCN(CC)CCN(C(=O)C(C)(C)C)c1ccccc1N | < 3.70 | < 3.70 | –
N#CC1(C#N)C(C#N)(C#N)C12CCCC2 | < 4.70 | 4.98 | –
COc1nc(N)nc2c1n(C)c[n+]2C | < 3.70 | 3.85 | –
C[C@]12CC[C@H]3[C@@H](CCC4=C/C(=N/OCCN5CCCCC5)CC[C@@]43C)[C@@H]1CC[C@@H]2O | < 3.70 | 5.38 | –
CC(C)[C@H]1CO[C@@H]2O[C@H](C)C(C)C(=O)N21 (stereo not given in full) | < 2.93 | < 2.93 | –
Cc1cccc(N=Nc2ccc(O)c(CN(C)C)c2)c1 | < 3.70 | 4.46 | –
Cc1cc(C)nc(NS(=O)(=O)c2ccc(Nc3c4ccccc4nc4c(C(=O)NCCN(C)C)ccc(Cl)c34)cc2)n1 | – | – | inactive
O=C(Nc1ccc(Cl)cc1)c1cc(S(=O)(=O)Nc2nc3ncccc3[nH]2)c(SSc2cc(Cl)c(C(=O)Nc3ccc(Cl)cc3)cc2S(=O)(=O)Nc2nc3ncccc3[nH]2)cc1Cl | < 3.70 | < 3.70 | –
CC(C)CCC[C@@H](C)[C@H]1CC[C@H]2[C@@H]3CC[C@H]4CC5(C[C@]4(C)[C@H]3CC[C@]12C)Nc1ccccc1S5 (stereo not given in full) | < 4.70 | < 4.70 | –
O=C1c2ccccc2C(=O)C1(Br)C(Br)c1ccccc1 (stereo not given) | < 3.70 | 5.59 | –

SMILES | pEC50 | pIC50 | outcome
O=c1oc2ccc(Br)cc2cc1-n1nnc2cc([N+](=O)[O-])ccc21 | < 4.76 | < 4.76 | –
COc1cc(O)c2c(c1)C(O)C(O)CC1OC1C(=O)/C=C/CC(C)OC2=O (stereo not given) | < 4.12 | 6.01 | –
O=C(Nc1cc(Cl)c(Cl)cc1Cl)C(=O)C1C=CCS1(=O)=O (stereo not given) | < 4.29 | < 4.29 | –
CC1NOC(=O)C1N=Nc1ccccc1Br (stereo not given) | < 4.18 | 4.20 | –
CCCN=C(N)C(C)=O | < 2.71 | < 2.71 | –
O=C(CO)C1CC2C=CC1C2 (stereo not given) | – | – | inactive
S=P(N1CCOCC1)(N1CC1)N1CC1 | < 3.70 | 5.28 | –
CC(=O)OCC1OC(N=[N+]=[N-])C(OC(C)=O)C(OC(C)=O)C1OC1OC(COC(C)=O)C(OC(C)=O)C(OC(C)=O)C1OC(C)=O (stereo not given) | < 4.27 | < 4.27 | –
CCOC(=O)C(NC(=O)CC)(Nc1ccc(S(=O)(=O)Nc2nc(C)cc(C)n2)cc1)C(F)(F)F (stereo not given) | < 3.70 | < 3.70 | –
Clc1ccc2c(c1)-c1c3c(nn1-c1ccccc1)-c1ccccc1SC3O2 (stereo not given) | < 4.87 | < 4.87 | –
O=C(OC1CN2CCC1CC2)N(c1ccccc1)c1ccccc1 (stereo not given) | < 3.70 | < 3.70 | –
CC1=C[C@H]2O[C@@H]3C[C@H]4OC(=O)/C=C\C=C\[C@H]([C@@H](C)O)OC[C@H](O)[C@@]5(C)O[C@@H]5C(=O)OC[C@@]2(C[C@H]1O)[C@]4(C)C31CO1 (stereo not given in full) | < 5.35 | 8.24 | –
Nc1nc(N)c(CCCCc2ccccc2)c(N)n1 | – | – | inactive
COC(=O)C1=C(C(=O)OC)C(C(=O)OC)N2C=CC=CC2=C1C(=O)OC (stereo not given) | < 3.70 | < 3.70 | –
Nc1ccccc1-c1ccn[nH]1 | < 3.70 | < 3.70 | –
CC1=NNC(=O)C1C(CC(=O)c1c[nH]c2ccccc12)C(=O)O (stereo not given) | < 3.70 | 3.90 | –
C#CCNC(=O)N(CC#C)N=O | < 2.96 | 3.78 | –
CCOC(=O)CNC(SC)=C(C#N)C#N | – | – | inactive
CC/C(=N/OC(=O)N(C)C)c1ccccc1 | < 3.70 | < 3.70 | –
Cn1c(=O)c2c(nc3sc4ncccc4c(=O)n32)n(C)c1=O | < 3.82 | < 3.82 | –
CCc1n[nH]c(=O)n1N1C(=O)CCC1=O | < 3.70 | < 3.70 | –
